Laboratory results published in US4145557A, “(Phenoxyphenyl) alkyl acetates, propionates, and carbamates” (Eli Lilly and Company, priority 1977, dated 1979).
Structures can show the parent of a compound that is named as a salt.

tested on: acetic acid-induced writhing in mice; assay: Analgesic writhing test (inhibition of acetic acid-induced writhing); format: in vivo, Standard strain albino male mice; settings: Mus musculus, sc, read-out: Analgesic Writhing Test Subcutaneous ED50
Method: A method similar to that reported by Koster, R., et al., "Acetic Acid for Analgesic Screening" Fed.
Standard strain albino male mice, weighing 16-18 grams, were administered the treatments either subcutaneously or by gastric lavage. At various times after treatment, writhing was induced by the intraperitoneal administration of 60 mg./kg. of acetic acid (0.6 percent). Each treatment group consisted of 6 mice. The total number of writhes for the treatment group were counted in a 10-minute observation period starting 5 minutes after the acetic acid administration. The treatment totals were compared to controls and a percent inhibition calculated as follows:
Percent Inhibition = 100 - (Treatment total/Control Total × 100)
The ED50 values in the table which follows represents the doses in mg. of compound/kg. of body weight which will produce a 50 percent inhibition of the frequency of writhing.

Row | Structure (SMILES) | ED50 [mg/kg]
1 | CC(=O)Oc1ccccc1C(=O)O [A.S.A., reference compound] | 20
2 | NCCc1cccc(Oc2ccccc2)c1 [CH2 CH2 NH2 . HCl] | 4
3 | CNCCc1cccc(Oc2ccccc2)c1.Cl [N-Methyl-2-(3-phenoxyphenyl)ethylamine hydrochloride] | 25
4 | CN(C)CCc1cccc(Oc2ccccc2)c1 [drawing 41] | 35

same assay, conditions: Mus musculus, sc; subcutaneous, mice, 50 percent inhibition of frequency of writhing; 60 mg./kg. acetic acid intraperitoneal; read-out: Analgesic Writhing Test Subcutaneous ED50

Row | Structure (SMILES) | ED50 [mg/kg]
5 | CCC(CNC)c1cccc(Oc2ccccc2)c1 (stereo not drawn) | 20
6 | CC(CN)c1cccc(Oc2ccccc2)c1 (stereo not drawn) [drawing 42] | 20
7 | CNCC(C)c1cccc(Oc2ccccc2)c1 (stereo not drawn) [drawing 43] | 20
8 | CC(CN(C)C)c1cccc(Oc2ccccc2)c1 (stereo not drawn) [drawing 44] | 10
9 | CC(CN(C)CC1CC1)c1cccc(Oc2ccccc2)c1 (stereo not drawn) [drawing 46] | < 50

tested on: not listed separately; assay: pK'a determination; format: physicochemical; settings: not given

Row | Structure (SMILES) | pKa
10 | O=C(O)Cc1cccc(Oc2ccccc2)c1 [2-(3-phenoxyphenyl)acetic acid] | 6.9
11 | CC(C(=O)O)c1cccc(Oc2ccccc2)c1 (stereo not drawn) [2-(3-phenoxyphenyl)propionic acid] | 7.3
12 | CC(CCN)c1cccc(Oc2ccccc2)c1 (stereo not drawn) [3-(3-Phenoxyphenyl)butylamine hydrochloride] | 10
13 | CC(c1cccc(Oc2ccccc2)c1)c1nnn[nH]1 (stereo not drawn) [5-(α-Methyl-3-phenoxybenzyl)-1H-tetrazole] | 5.8
14 | CN(C)CCc1cccc(Oc2ccccc2)c1.Cl [N,N-Dimethyl-2-(3-phenoxyphenyl)ethylamine hydrochloride] | 8.5
15 | C=CCNCC(C)c1cccc(Oc2ccccc2)c1 (stereo not drawn) [N-Allyl-2-(3-phenoxyphenyl)propylamine hydrochloride] | 8.5
16 | CC(CNC1CC1)c1cccc(Oc2ccccc2)c1 (stereo not drawn) [N-Cyclopropyl-2-(3-phenoxyphenyl)propylamine hydrochloride] | 7.9
17 | CNCCc1cccc(Oc2ccccc2)c1.Cl [N-Methyl-2-(3-phenoxyphenyl)ethylamine hydrochloride] | 9.7
18 | CNCCC(C)c1cccc(Oc2ccccc2)c1 (stereo not drawn) [N-Methyl-3-(3-phenoxyphenyl)butylamine hydrochloride] | 10
19 | CC(CN(C)CCc1ccccc1)c1cccc(Oc2ccccc2)c1 (stereo not drawn) [N-Methyl-N-(2-phenylethyl)-2-(3-phenoxyphenyl)propylamine hydrochloride] | 7.7
20 | CC(C)=CCN(C)CC(C)c1cccc(Oc2ccccc2)c1 (stereo not drawn) [N-Methyl-N-(3-methylbut-2-enyl)-2-(3-phenoxyphenyl)propylamine hydrochloride] | 8.5
21 | C=CCN(C)CC(C)c1cccc(Oc2ccccc2)c1 (stereo not drawn) [N-Methyl-N-allyl-2-(3-phenoxyphenyl)propylamine hydrochloride] | 7.6
22 | CC(CN(C)C1CC1)c1cccc(Oc2ccccc2)c1 (stereo not drawn) [N-Methyl-N-cyclopropyl-2-(3-phenoxyphenyl)propylamine hydrochloride] | 6.9
23 | CC(CN(C)CC1CC1)c1cccc(Oc2ccccc2)c1 (stereo not drawn) [N-Methyl-N-cyclopropylmethyl-2-(3-phenoxyphenyl)propylamine hydrochloride] | 8.3

tested on: ultraviolet erythema in guinea pigs; assay: Erythema blocking assay (anti-inflammatory activity, ultraviolet erythema, oral); format: in vivo, Albino guinea pigs; settings: Cavia porcellus, po, read-out: Erythema Blocking Assay Oral ED50
Method: Various compounds within the scope of this invention were tested for anti-inflammatory activity in an erythema blocking assay which involved the following test procedure.
A modification of the Winder et al. (1958) method [Winder, C. V., Wax, J., Burr, V. and Posiere, C. E.: "A Study of Pharmacological Influences on Ultraviolet Erythema in Guinea Pigs", Arch. Int. Pharmacodyn., 116, 261, 1958] was used to measure anti-inflammatory activity of these compounds. Albino guinea pigs of either sex weighing 225-300 grams were shaved on the back and chemically (NAIR®, Lotion Hair Remover, Carter Products, N. Y., N. Y.) depitated, 18-20 hours before exposure to ultraviolet light. The animals were fasted overnight. Immediately after the guinea pigs were treated with a test compound, gummed notebook paper reinforcements were placed on their backs, and they were exposed to a high intensity ultraviolet light for seven seconds. The ultraviolet light source was a Hanovia Lamp (Kromayer-Model 10) which was placed in contact with the skin of the guinea pig's back. After exposure, the reinforcements were removed and their backs wiped clean with a water soaked gauze sponge. The unexposed area under the reinforcements provided an area of contrast for grading the erythema. The animals were randomized and placed in clear plastic partitioned holders 10 × 20 cm. wide and 15 cm. high. Beginning one hour after exposure and thereafter at half-hour intervals for another one and one-half hours, the degree of resulting erythema was graded by an arbitrary scoring system based upon the degree of contrast and redness formed. Anti-inflammatory agents delay the development of the erythema and therefore have their greatest effect at the initial grading periods. Therefore, the scores were weighed by a factor of 4, 3, 2, and 1 at the 1.0-, 1.5-, 2.0-, and 2.5-hour scoring times, respectively. The erythema was graded as follows:
Score Appearance of Exposed Area
______________________________________
0 No redness and no contrast
1 Slight redness with a faint reinforcement outline
2 Slight to moderate redness with a distinct outline
3 Marked redness with a distinct circular outline
Total scores from each treatment group of five or six guinea pigs were compared to the control treatment and the percent inhibition calculated as follows:
100 × Control - Treatment/Control = Percent Inhibition
Test compounds were prepared in a suspension of 1 percent methylcellulose in water and administered orally. Guinea pigs were treated orally with 1.0 cc./kg. of the suspensions. Control animals received 1.0 cc./kg. of a 1 percent methylcellulose suspension. The dose that produces a 50 percent inhibition of the erythemic response (ED50) was calculated. The ED50 results in (mg./kg.) are recorded in the following table: […]

Row | Structure (SMILES) | ED50 [mg/kg]
24 | CC(=O)Oc1ccccc1C(=O)O [A.S.A., reference compound] | 50
25 | CN(C)CCc1cccc(Oc2ccccc2)c1.Cl [N,N-Dimethyl-2-(3-phenoxyphenyl)ethylamine hydrochloride] | 7
26 | CNCCc1cccc(Oc2ccccc2)c1.Cl [N-Methyl-2-(3-phenoxyphenyl)ethylamine hydrochloride] | 10

same assay, conditions: Cavia porcellus; oral, guinea pigs, 50 percent inhibition of erythemic response; single dose in 1 percent methylcellulose, scored 1.0-2.5 hours; read-out: Erythema Blocking Assay Oral ED50

Row | Structure (SMILES) | ED50 [mg/kg]
27 | CC(CNCC1CC1)c1cccc(Oc2ccccc2)c1 (stereo not drawn) | 20
28 | CC(CNCCc1ccccc1)c1cccc(Oc2ccccc2)c1 (stereo not drawn) | 15
29 | CC(CO)c1cccc(Oc2ccccc2)c1 (stereo not drawn) | 2
30 | CC(=O)OCC(C)c1cccc(Oc2ccccc2)c1 (stereo not drawn) | 8
31 | CCC(=O)OCC(C)c1cccc(Oc2ccccc2)c1 (stereo not drawn) | 10
32 | CNC(=O)OCC(C)c1cccc(Oc2ccccc2)c1 (stereo not drawn) | 40
33 | CC(C(N)=O)c1cccc(Oc2ccccc2)c1 (stereo not drawn) | 3
34 | CNC(=O)C(C)c1cccc(Oc2ccccc2)c1 (stereo not drawn) | 30
35 | CC(C(=O)N(C)C)c1cccc(Oc2ccccc2)c1 (stereo not drawn) | 25
36 | CC(C(=O)NO)c1cccc(Oc2ccccc2)c1 (stereo not drawn) | 2
37 | CC(C(=O)NCC(=O)O)c1cccc(Oc2ccccc2)c1 (stereo not drawn) | 5
38 | NCCc1cccc(Oc2ccccc2)c1 [CH2 CH2 NH2 . HCl] | 75
39 | CC(CN)c1cccc(Oc2ccccc2)c1 (stereo not drawn) [drawing 17] | 1
40 | CNCC(C)c1cccc(Oc2ccccc2)c1 (stereo not drawn) [drawing 18] | 1
41 | CC(CN(C)C)c1cccc(Oc2ccccc2)c1 (stereo not drawn) [drawing 19] | 8
42 | CC(CNC1CC1)c1cccc(Oc2ccccc2)c1 (stereo not drawn) [drawing 20] | 9
43 | CC(CN(C)C1CC1)c1cccc(Oc2ccccc2)c1 (stereo not drawn) [drawing 22] | 3
44 | CC(CN(C)CC1CC1)c1cccc(Oc2ccccc2)c1 (stereo not drawn) [drawing 23] | 3
45 | C=CCNCC(C)c1cccc(Oc2ccccc2)c1 (stereo not drawn) [drawing 24] | 10
46 | C=CCN(C)CC(C)c1cccc(Oc2ccccc2)c1 (stereo not drawn) [drawing 25] | 3
47 | CC(C)=CCN(C)CC(C)c1cccc(Oc2ccccc2)c1 (stereo not drawn) [drawing 26] | 5
48 | CC(CN(C)CCc1ccccc1)c1cccc(Oc2ccccc2)c1 (stereo not drawn) [drawing 28] | 5
49 | CC(CCN)c1cccc(Oc2ccccc2)c1 (stereo not drawn) [drawing 29] | 2
50 | CNCCC(C)c1cccc(Oc2ccccc2)c1 (stereo not drawn) [drawing 30] | 5
51 | CC(c1cccc(Oc2ccccc2)c1)c1nnn[nH]1 (stereo not drawn) [drawing 36] | 10
